Source: patent publication US12428413B2 (CHDI Foundation, Inc., priority 2019, dated 2025)
Counter-ions that a name gives are not always drawn. Like-named read-outs stand apart in the source and are kept apart here.

Experiments:
[1] = system: cellular ROCK activity (cofilin phosphorylation at Ser3) in A7r5 rat smooth muscle cells; assay: Cellular ROCK activity: cofilin (Ser3) phosphorylation, In-Cell Western assay; format: cell-based; conditions: Rattus norvegicus, 1 hour compound incubation, phospho-cofilin (Ser3), read-out: CELL_IC50
Method in brief: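 A7r5 rat smooth muscle cells (3000/well, overnight) exposed to compound for 1 h at 37° C., then formaldehyde-fixed. Phospho-cofilin Ser3 detected by In-Cell Western with 800CW secondary antibody, read at 700 and 800 nm on an Odyssey imager.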

[2] = molecular target: T1, human catalytic domain ROCK II protein (amino acids 5-554) with a N-terminal GST tag (Homo sapiens, UniProt O75116)
[3] = molecular target: T1, human catalytic domain ROCK II protein (amino acids 5-554) with a N-terminal GST tag; assay: biochemical
[4] = system: hepatic ischemia/reperfusion in rats; conditions: oral pretreatment, 25% in vehicle-treated animals; cited from earlier work
[5] = from 1 through 7 hours after instillation; cited from earlier work

T1 sequence (O75116 5-554): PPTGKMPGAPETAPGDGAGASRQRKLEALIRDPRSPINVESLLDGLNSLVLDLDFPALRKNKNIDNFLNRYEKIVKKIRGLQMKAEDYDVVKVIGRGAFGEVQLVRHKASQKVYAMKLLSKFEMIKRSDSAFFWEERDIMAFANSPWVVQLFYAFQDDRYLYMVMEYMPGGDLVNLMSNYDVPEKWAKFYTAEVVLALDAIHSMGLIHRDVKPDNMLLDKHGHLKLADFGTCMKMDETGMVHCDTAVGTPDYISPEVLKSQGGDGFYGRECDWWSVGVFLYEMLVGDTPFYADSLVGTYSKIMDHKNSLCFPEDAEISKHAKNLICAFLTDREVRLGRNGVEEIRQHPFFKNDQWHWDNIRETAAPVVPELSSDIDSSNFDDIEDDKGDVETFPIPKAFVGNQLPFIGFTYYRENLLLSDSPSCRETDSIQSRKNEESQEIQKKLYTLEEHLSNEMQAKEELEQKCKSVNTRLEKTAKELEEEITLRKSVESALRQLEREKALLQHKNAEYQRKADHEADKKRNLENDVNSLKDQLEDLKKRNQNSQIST

SMILES	IC50 ([1]; A7R5, 1 h)	IC50 [3]	further results
COc1cccc([C@@H](C)NC(=O)N2CCN(c3ccncc3F)C[C@H]2C)c1F [Example 44, (R)—N—((R)-1-(2-Fluoro-3-methoxyphenyl)ethyl)-4-(3-fluoropyridin-4-yl)-2-methylpiperazine-1-carboxamide]	323 nM	–	IC50 [2]: 26.3 nM
COc1cccc([C@@H](C)NC(=O)N2CCN(c3ccncc3F)[C@H](C)C2)c1 [Example 91, (R)-4-(3-Fluoropyridin-4-yl)-N—((R)-1-(3-methoxyphenyl)ethyl)-3-methylpiperazine-1-carboxamide]	783 nM	150 nM	–
COc1cccc(CNC(=O)N2[C@H](C)CN(c3ccncc3F)C[C@H]2C)c1 [Example 95, (2R,6R)-4-(3-Fluoropyridin-4-yl)-N-(3-methoxybenzyl)-2,6-dimethylpiperazine-1-carboxamide]	1160 nM	38.3 nM	–
COc1cccc([C@@H](C)NC(=O)N2[C@H](C)CN(c3ccncc3F)C[C@H]2C)c1 [Example 97, (2R,6R)-4-(3-Fluoropyridin-4-yl)-N—((R)-1-(3-methoxyphenyl)ethyl)-2,6-dimethylpiperazine-1-carboxamide Formate]	114 nM	12 nM	–
COc1cccc([C@@H](C)NC(=O)N2CCN(c3ccncc3F)C(=O)C2)c1 [Example 100, (R)-4-(3-Fluoropyridin-4-yl)-N-(1-(3-methoxyphenyl)ethyl)-3-oxopiperazine-1-carboxamide]	–	2120 nM	IC50 [1]: ≥ 5000 nM
C[C@@H]1CN(c2ccnc(F)c2)CCN1C(=O)NCc1ccccc1Cl [Example 106]	1620 nM	184 nM	–
C[C@@H]1CN(c2ccnc(F)c2)CCN1C(=O)N[C@H](C)c1cccc2occc12 [Example 113]	122 nM	3.9 nM	–
C[C@@H]1CN(c2ccnc(F)c2)CCN1C(=O)N[C@H](C)c1cccc2c1CCO2 [Example 114]	30.3 nM	3.5 nM	–
[2H]C([2H])([2H])Oc1cccc([C@H](NC(=O)N2CCN(c3ccnc(F)c3)C[C@H]2C)C([2H])([2H])[2H])c1 [Example 116]	127 nM	6.9 nM	–
C[C@@H](NC(=O)N1CCN(c2ccnc(F)c2)[C@@H](C)C1)c1cccc2c1CCO2 [Example 118]	711 nM	16.2 nM	–
C[C@@H](NC(=O)N1CCN(c2ccnc(F)c2)[C@@H](C)C1)c1cccc2occc12 [Example 119]	411 nM	10 nM	–
C[C@@H](NC(=O)N1CCN(c2ccnc(F)c2)[C@@H](C)C1)c1cccc(OC(F)F)c1 [Example 120]	3970 nM	59.5 nM	–
C[C@@H](NC(=O)N1CCN(c2ccncc2F)CC1)c1ccccc1Cl [Example 124]	1160 nM	61.1 nM	–
COc1cccc([C@H](C)NC(=O)N2CCN(c3ccncc3F)CC2)c1Cl [Example 125]	4310 nM	1160 nM	–
COc1ccc(F)c([C@@H](C)NC(=O)N2CCN(c3ccncc3F)CC2)c1 [Example 126]	924 nM	60.9 nM	–
C[C@@H](NC(=O)N1CCN(c2ccncc2F)CC1)c1cccc(OC(F)F)c1 [Example 127]	428 nM	24.2 nM	–

SMILES	IC50 ([1]; A7R5, 1 h)	IC50 [3]	further results
O=C(NCc1cccc(OC(F)F)c1)N1CCN(c2ccncc2F)CC1 [Example 129]	3540 nM	84.5 nM	–
[2H]C([2H])([2H])Oc1cccc([C@H](NC(=O)N2CCN(c3ccncc3F)CC2)C([2H])([2H])[2H])c1 [Example 131]	152 nM	8 nM	–
[2H]C([2H])([2H])Oc1cccc([C@@H](C)NC(=O)N2CCN(c3ccncc3F)CC2)c1 [Example 132]	185 nM	6.7 nM	–
COc1cccc([C@@H](C)NC(=O)N2CCN(c3ccncc3F)C[C@@H]2C)c1 [Example 133]	2440 nM	167 nM	–
C[C@@H]1CN(c2ccncc2F)CCN1C(=O)N[C@H](C)c1cccc(OC(F)F)c1 [Example 136]	53.1 nM	3.8 nM	–
COc1cccc([C@@H](C)NC(=O)N2CCN(c3ccncc3F)CC2CO)c1 (stereo partly shown) [Example 137]	79.8 nM	4.8 nM	–
COc1cccc(CNC(=O)N2CCN(c3ccncc3F)C[C@H]2C)c1 [Example 138]	97.5 nM	4.2 nM	–
C[C@@H]1CN(c2ccncc2F)CCN1C(=O)NCc1cccc(OC(F)F)c1 [Example 139]	486 nM	10 nM	–
C[C@@H]1CN(c2ccncc2F)CCN1C(=O)N[C@H](C)c1cccc2c1CCO2 [Example 141]	1.7 nM	1.8 nM	–
C[C@@H](NC(=O)N1CCN(c2ccncc2F)[C@@H](C)C1)c1cccc(OC(F)F)c1 [Example 145]	413 nM	12.4 nM	–
C[C@@H](NC(=O)N1CCN(c2ccncc2F)[C@@H](C)C1)c1cccc2c1CCO2 [Example 147]	23 nM	3.2 nM	–
COc1cccc([C@@H](C)NC(=O)N2CCN(c3ccncc3F)[C@H]3C[C@H]32)c1 [Example 152]	248 nM	16.3 nM	–
COc1cccc([C@@H](C)NC(=O)N2CCN(c3ccncc3Cl)C[C@H]2C)c1 [Example 155]	42.2 nM	2.7 nM	–
C[C@@H](N)[C@H]1CC[C@H](C(=O)Nc2ccncc2)CC1 [Example Y27632]	–	–	survival at one week after ischemia [4]: 75%
C[C@H]1CNCCCN1S(=O)(=O)c1cccc2cncc(F)c12 [Ripasudil]	–	–	intraocular pressure reduction [5]: Significant intraocular pressure reduction

Further lines, with some results ahead:

IC50 ([1]; A7R5, 1 h)	IC50 [3]	SMILES	further results
34.7 nM	6.5 nM	C[C@@H]1CN(c2ccncc2F)C[C@@H](C)N1C(=O)N[C@H](C)c1cccc2c1CCO2 [Example 96, (2R,6R)—N—((R)-1-(2,3-Dihydrobenzofuran-4-yl)ethyl)-4-(3-fluoropyridin-4-yl)-2,6-dimethylpiperazine-1-carboxamide]	–
≥ 5000 nM	3120 nM	COc1cccc([C@@H](C)NC(=O)N2C[C@@H]3C[C@H]2CN3c2ccncc2F)c1 [Example 99]	–
1070 nM	42.2 nM	COc1cccc(CNC(=O)N2CCN(c3ccnc(F)c3)C[C@H]2C)c1 [Example 107]	–
1320 nM	38.3 nM	COc1ccc(F)c([C@@H](C)NC(=O)N2CCN(c3ccnc(F)c3)C[C@H]2C)c1 [Example 112]	–
138 nM	8.1 nM	[2H]C([2H])([2H])Oc1cccc([C@@H](C)NC(=O)N2CCN(c3ccnc(F)c3)C[C@H]2C)c1 [Example 115]	–
1660 nM	122 nM	O=C(NCc1ccccc1Cl)N1CCN(c2ccncc2F)CC1 [Example 130]	–
108 nM	6.6 nM	COc1ccc(F)c([C@@H](C)NC(=O)N2CCN(c3ccncc3F)C[C@H]2C)c1 [Example 134]	–
9.1 nM	2.6 nM	C[C@@H]1CN(c2ccncc2F)CCN1C(=O)N[C@H](C)c1cccc2occc12 [Example 142]	–
674 nM	12.8 nM	C[C@H](NC(=O)N1CCN(c2ccncc2F)C[C@H]1C)c1cccc2c1N(C)CCO2 [Example 144]	–
2090 nM	110 nM	C[C@@H](NC(=O)N1CCN(c2ccncc2F)[C@@H](C)C1)c1ccccc1Cl [Example 146]	–
707 nM	20.1 nM	COc1cccc(CNC(=O)N2CCN(c3ccncc3F)[C@@H](C)C2)c1 [Example 150]	–
703 nM	51.9 nM	COc1cccc([C@@H](C)NC(=O)N2CCN(c3ccncc3F)[C@@H]3C[C@@H]32)c1 [Example 151]	–
2430 nM	238 nM	COc1cccc([C@@H](C)NC(=O)N2C[C@H]3C[C@@H]2CN3c2ccncc2F)c1 [Example 153]	–
60.2 nM	19.6 nM	COc1cccc([C@@H](C)NC(=O)N2CCN(c3ccncc3F)CC2C)c1 (stereo partly shown) [Example 154]	–
